Results as given in ChEMBL document CHEMBL4411321, “Discovery of Potent, Selective, and Orally Bioavailable Estrogen-Related Receptor-γ Inverse Agonists To Restore the Sodium Iodide Symporter Function in Anaplastic Thyroid Cancer” (J Med Chem, 2019).

Key:
[1] = Metabolic stability in human liver microsomes assessed as compound remaining at 1 uM after 30 mins in presence of NADPH regeneration system by LC-MS/MS analysis; assay type: ADME, Microsome; details: read-out: Stability
CYP2C9 = CYP2C9 (Homo sapiens, UniProt P11712); assay: Inhibition of CYP2C9 in human liver microsomes assessed as reduction in tolbutamide 4-hydroxylase activity at 10 uM preincubated for 5 mins followed by NADPH addition and measured after 15 mins by LC-MS/MS analysis relative to control; assay type: ADME; details: probe tolbutamide (4-hydroxylation)
Chain of CYP2C9 (P11712 whole entry): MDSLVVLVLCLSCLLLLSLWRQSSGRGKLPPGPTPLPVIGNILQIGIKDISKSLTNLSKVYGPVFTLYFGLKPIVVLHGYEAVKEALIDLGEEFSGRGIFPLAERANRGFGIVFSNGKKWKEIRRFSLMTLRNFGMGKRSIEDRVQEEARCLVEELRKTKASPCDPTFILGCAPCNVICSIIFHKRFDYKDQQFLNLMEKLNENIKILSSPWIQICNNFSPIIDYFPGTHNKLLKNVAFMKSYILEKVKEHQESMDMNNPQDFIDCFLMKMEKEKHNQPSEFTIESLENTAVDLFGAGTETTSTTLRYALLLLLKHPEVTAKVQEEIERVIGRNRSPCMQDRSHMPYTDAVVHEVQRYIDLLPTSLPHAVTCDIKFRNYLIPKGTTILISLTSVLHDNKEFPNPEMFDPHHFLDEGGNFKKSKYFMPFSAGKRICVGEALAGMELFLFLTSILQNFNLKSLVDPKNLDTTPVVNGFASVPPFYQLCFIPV

CYP2C19 = CYP2C19 (Homo sapiens, UniProt P33261); assay: Inhibition of CYP2C19 in human liver microsomes assessed as reduction in S-mephenytoin 4-hydroxylase activity at 10 uM preincubated for 5 mins followed by NADPH addition and measured after 15 mins by LC-MS/MS analysis relative to control; assay type: ADME; details: probe S-mephenytoin (4-hydroxylation)
Chain of CYP2C19 (P33261 whole entry): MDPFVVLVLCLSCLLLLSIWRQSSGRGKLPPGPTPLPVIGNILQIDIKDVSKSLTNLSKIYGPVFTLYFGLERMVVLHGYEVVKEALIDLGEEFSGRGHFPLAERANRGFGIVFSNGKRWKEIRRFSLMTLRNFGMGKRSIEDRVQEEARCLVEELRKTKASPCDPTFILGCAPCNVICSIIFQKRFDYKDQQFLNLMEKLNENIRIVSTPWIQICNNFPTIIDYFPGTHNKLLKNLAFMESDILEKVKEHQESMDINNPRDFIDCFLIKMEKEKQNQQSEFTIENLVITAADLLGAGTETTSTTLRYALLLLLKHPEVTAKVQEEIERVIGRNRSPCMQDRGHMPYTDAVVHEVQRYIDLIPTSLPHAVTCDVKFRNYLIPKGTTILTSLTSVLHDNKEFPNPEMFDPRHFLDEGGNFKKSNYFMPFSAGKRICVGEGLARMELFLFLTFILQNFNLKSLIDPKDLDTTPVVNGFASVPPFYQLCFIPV

CYP1A2 = target: T1, CYP1A2 (Homo sapiens, UniProt P05177); assay: Inhibition of CYP1A2 in human liver microsomes assessed as reduction in phenacetin O-deethylase activity at 10 uM preincubated for 5 mins followed by NADPH addition and measured after 15 mins by LC-MS/MS analysis relative to control; assay type: ADME; details: probe phenacetin (O-deethylation)
T1 sequence (P05177 whole entry): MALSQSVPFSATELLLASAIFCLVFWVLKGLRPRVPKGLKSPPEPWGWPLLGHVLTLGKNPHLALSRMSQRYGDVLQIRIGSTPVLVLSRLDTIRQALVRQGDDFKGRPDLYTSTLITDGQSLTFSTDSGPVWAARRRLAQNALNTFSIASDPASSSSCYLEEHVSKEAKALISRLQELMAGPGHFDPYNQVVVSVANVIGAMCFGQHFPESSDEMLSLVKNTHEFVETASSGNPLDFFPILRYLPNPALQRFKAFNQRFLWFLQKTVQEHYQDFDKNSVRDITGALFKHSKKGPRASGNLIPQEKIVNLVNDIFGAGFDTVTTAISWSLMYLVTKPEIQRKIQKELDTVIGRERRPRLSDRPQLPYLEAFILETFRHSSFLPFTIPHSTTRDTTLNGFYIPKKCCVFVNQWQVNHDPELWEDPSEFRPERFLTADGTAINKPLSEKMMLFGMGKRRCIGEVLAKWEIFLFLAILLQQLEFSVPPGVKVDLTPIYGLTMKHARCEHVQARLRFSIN

Estrogen receptor = target: T2, Estrogen receptor (Homo sapiens, UniProt P03372)
T2 sequence (P03372 whole entry): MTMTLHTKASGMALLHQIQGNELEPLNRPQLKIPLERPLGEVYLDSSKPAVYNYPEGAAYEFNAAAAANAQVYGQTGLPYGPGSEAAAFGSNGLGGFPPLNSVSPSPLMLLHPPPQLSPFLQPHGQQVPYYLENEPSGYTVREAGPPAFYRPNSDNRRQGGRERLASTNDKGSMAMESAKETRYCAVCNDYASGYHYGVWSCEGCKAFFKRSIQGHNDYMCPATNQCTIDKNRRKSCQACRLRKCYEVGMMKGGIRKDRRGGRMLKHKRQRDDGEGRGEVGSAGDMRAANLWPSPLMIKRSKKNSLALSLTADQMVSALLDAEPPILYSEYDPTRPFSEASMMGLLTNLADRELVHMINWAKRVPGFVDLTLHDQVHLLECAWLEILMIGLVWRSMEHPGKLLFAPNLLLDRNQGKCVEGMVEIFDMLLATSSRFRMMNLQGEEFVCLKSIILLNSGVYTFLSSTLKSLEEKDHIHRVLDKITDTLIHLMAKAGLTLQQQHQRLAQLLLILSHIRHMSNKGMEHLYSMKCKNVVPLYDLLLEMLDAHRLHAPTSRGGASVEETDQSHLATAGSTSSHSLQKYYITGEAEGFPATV

CYP3A4 = CYP3A4 (Homo sapiens, UniProt P08684); assay: Inhibition of CYP3A4 in human liver microsomes assessed as reduction in midazolam 1-hydroxylase activity at 10 uM preincubated for 5 mins followed by NADPH addition and measured after 15 mins by LC-MS/MS analysis relative to control; assay type: ADME; details: probe midazolam (1-hydroxylation)
Chain of CYP3A4 (P08684 whole entry): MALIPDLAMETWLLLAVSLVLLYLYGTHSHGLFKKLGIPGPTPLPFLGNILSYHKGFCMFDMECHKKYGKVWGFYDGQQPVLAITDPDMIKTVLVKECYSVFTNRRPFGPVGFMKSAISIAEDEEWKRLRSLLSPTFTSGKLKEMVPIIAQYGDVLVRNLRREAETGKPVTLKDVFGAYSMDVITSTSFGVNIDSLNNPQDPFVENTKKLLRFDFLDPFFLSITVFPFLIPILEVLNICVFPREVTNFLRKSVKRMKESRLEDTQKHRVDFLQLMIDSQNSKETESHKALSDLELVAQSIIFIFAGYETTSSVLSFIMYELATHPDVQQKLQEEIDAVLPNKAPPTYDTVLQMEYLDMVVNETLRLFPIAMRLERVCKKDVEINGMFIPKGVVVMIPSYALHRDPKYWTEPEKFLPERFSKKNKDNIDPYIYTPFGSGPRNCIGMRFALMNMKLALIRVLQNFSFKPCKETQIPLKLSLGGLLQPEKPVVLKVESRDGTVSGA

[2] = Metabolic stability in rat liver microsomes assessed as compound remaining at 1 uM after 30 mins in presence of NADPH regeneration system by LC-MS/MS analysis; assay type: ADME, Microsome; details: read-out: Stability
CYP2D6 = CYP2D6 (Homo sapiens, UniProt P10635); assay: Inhibition of CYP2D6 in human liver microsomes assessed as reduction in dextromethorphan O-demethylase activity at 10 uM preincubated for 5 mins followed by NADPH addition and measured after 15 mins by LC-MS/MS analysis relative to control; assay type: ADME; details: probe dextromethorphan (O-demethylation)
Chain of CYP2D6 (P10635 whole entry): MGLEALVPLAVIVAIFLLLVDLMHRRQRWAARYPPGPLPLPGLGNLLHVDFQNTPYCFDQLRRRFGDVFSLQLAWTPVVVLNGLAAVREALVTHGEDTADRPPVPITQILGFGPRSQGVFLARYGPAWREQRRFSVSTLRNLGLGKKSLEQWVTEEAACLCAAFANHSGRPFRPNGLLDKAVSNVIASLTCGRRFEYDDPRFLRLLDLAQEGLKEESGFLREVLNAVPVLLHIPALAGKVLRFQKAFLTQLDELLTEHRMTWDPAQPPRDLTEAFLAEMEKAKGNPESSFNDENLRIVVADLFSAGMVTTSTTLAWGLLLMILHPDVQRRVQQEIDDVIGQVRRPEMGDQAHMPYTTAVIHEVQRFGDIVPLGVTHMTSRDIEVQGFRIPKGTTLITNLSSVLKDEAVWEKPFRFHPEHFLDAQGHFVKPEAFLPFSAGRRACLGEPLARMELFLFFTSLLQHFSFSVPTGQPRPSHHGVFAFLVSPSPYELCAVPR

[3] = target: T3, Steroid hormone receptor ERR1 (Homo sapiens, UniProt P11474)
T3 sequence (P11474 whole entry): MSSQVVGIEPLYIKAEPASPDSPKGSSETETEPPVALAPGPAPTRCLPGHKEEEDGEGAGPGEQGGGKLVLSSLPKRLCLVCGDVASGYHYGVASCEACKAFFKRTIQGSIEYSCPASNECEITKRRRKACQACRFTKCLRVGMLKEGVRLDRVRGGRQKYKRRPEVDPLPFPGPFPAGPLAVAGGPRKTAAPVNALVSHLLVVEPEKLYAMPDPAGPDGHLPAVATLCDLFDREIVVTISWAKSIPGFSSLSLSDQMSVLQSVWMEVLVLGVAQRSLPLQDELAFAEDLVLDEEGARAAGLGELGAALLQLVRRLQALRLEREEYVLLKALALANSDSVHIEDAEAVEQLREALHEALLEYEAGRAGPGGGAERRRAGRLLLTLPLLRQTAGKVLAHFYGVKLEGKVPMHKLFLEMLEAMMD

[4] = target: T4, Estrogen-related receptor gamma (Homo sapiens, UniProt P62508)
T4 sequence (P62508 whole entry): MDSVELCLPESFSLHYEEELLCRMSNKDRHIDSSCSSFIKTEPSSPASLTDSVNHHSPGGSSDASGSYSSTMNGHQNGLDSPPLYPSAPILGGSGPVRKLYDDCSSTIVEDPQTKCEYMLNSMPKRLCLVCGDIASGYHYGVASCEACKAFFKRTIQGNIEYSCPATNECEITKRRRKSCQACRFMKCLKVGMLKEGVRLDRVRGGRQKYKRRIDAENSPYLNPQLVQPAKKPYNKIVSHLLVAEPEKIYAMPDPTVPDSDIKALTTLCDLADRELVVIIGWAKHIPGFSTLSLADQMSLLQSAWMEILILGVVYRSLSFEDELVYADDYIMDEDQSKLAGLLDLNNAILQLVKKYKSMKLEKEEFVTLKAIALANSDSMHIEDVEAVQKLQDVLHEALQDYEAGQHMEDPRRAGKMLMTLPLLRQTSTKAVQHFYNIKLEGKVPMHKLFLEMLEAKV

[5] = Metabolic stability in mouse liver microsomes assessed as compound remaining at 1 uM after 30 mins in presence of NADPH regeneration system by LC-MS/MS analysis; assay type: ADME, Microsome; details: read-out: Stability
[6] = Metabolic stability in dog liver microsomes assessed as compound remaining at 1 uM after 30 mins in presence of NADPH regeneration system by LC-MS/MS analysis; assay type: ADME, Canis lupus familiaris, Microsome; details: read-out: Stability
[7] = target: T5, Steroid hormone receptor ERR2 (Homo sapiens, UniProt O95718); assay: Binding affinity to ERRbeta (unknown origin) using fluorescein-conjugated coactivator PGC-1alpha incubated for 1 hr by TR-FRET assay
T5 sequence (O95718 whole entry): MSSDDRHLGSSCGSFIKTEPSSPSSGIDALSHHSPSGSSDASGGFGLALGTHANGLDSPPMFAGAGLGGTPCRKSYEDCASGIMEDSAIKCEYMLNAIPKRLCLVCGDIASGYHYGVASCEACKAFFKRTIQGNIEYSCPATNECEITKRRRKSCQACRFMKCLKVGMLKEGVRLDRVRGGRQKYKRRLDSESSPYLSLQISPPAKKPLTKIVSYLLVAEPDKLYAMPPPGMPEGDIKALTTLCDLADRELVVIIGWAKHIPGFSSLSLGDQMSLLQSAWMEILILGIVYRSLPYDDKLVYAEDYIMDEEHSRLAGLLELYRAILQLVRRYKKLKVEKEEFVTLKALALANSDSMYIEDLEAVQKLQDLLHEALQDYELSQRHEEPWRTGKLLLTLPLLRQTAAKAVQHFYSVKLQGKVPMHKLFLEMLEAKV

[8] = Effective permeability of the compound at 10 uM after 5 hrs by PAMPA; assay type: ADME; details: read-out: Peff

Molecule `OCCC/C(=C(\c1ccc(Br)cc1)c1ccc(N2CCNCC2)cc1)c1ccccc1` has a remaining at 0.5 h, 1 µM [1] of 65.1%, an inhibition at 0.25 h, 10 µM (CYP2C9) of 24% and an inhibition at 0.25 h, 10 µM (CYP2C19) of 38.1%. For the same molecule, the inhibition at 0.25 h, 10 µM (CYP1A2) was 15%, the IC50 (Estrogen receptor) was greater than 10 µM and the inhibition at 0.25 h, 10 µM (CYP3A4) was 45%. It also gave a remaining at 0.5 h, 1 µM [2] of 84.7% and an inhibition at 0.25 h, 10 µM (CYP2D6) of 29.3%.
`CN1CCN(c2ccc(/C(=C(/CCCO)c3ccccc3)c3ccc(Br)cc3)cc2)CC1` gave an IC50 (Estrogen receptor) greater than 10 µM and an IC50 [3] greater than 10 µM.
In the case of `CCN1CCN(c2ccc(/C(=C(/CCCO)c3ccccc3)c3ccc(O)cc3)cc2)CC1`, the IC50 (Estrogen receptor) is reported as 1.14 µM, the IC50 [4] is reported as 50 nM and the IC50 [3] is reported as greater than 10 µM.
`CC(C)N1CCN(c2ccc(/C(=C(/CCCO)c3ccccc3)c3cccc(Br)c3)cc2)CC1` gave a remaining at 0.5 h, 1 µM [1] of 53.6%, a remaining at 0.5 h, 1 µM [5] of 31% and an inhibition at 0.25 h, 10 µM (CYP2C9) of 27%. The inhibition at 0.25 h, 10 µM (CYP2C19) was 56.1%, the inhibition at 0.25 h, 10 µM (CYP1A2) was 2.5% and the IC50 (Estrogen receptor) was greater than 10 µM. The remaining at 0.5 h, 1 µM [6] was 68.4%, the IC50 [3] was greater than 10 µM and the IC50 [7] was 1440 nM. The inhibition at 0.25 h, 10 µM (CYP3A4) was 60.1%, the remaining at 0.5 h, 1 µM [2] was 53.7% and the inhibition at 0.25 h, 10 µM (CYP2D6) was 70.4%.
`CC(C)N1CCN(c2ccc(/C(=C(/CCCO)c3ccccc3)c3ccc(Br)cc3)cc2)CC1.Cl.Cl` gave a remaining at 0.5 h, 1 µM [1] greater than 100%, a remaining at 0.5 h, 1 µM [5] of 48.5% and an inhibition at 0.25 h, 10 µM (CYP2C9) of 3.1%. For the same molecule, the inhibition at 0.25 h, 10 µM (CYP2C19) was 13.7%, the inhibition at 0.25 h, 10 µM (CYP1A2) was 6.5% and the IC50 (Estrogen receptor) was greater than 10 µM. For the same molecule, the remaining at 0.5 h, 1 µM [6] was 64.4%, the IC50 [3] was greater than 10 µM and the inhibition at 0.25 h, 10 µM (CYP3A4) was 35.5%. It also gave a remaining at 0.5 h, 1 µM [2] of 74.2%, a Papp at 5 h, 10 µM [8] of 0.37 ×10⁻⁶ cm/s and an inhibition at 0.25 h, 10 µM (CYP2D6) of 28.5%.
`CN1CCN(c2ccc(/C(=C(/CCCO)c3ccccc3)c3ccc(O)cc3)cc2)CC1` gave an IC50 (Estrogen receptor) of 1.7 µM, an IC50 [3] greater than 10 µM and an IC50 [7] of 1980 nM.
For `CC(C)N1CCN(c2cccc(/C(=C(/CCCO)c3ccccc3)c3cccc(O)c3)c2)CC1`, the IC50 [4] was 5620 nM.
With `CC(C)N1CCN(c2ccc(/C(=C(/CCCO)c3ccccc3)c3ccc(OS(C)(=O)=O)cc3)cc2)CC1` the IC50 [4] was 2630 nM.
With `OCCC/C(=C(\c1ccc(O)cc1)c1ccc(N2CCN(C3COC3)CC2)cc1)c1ccccc1` the IC50 [4] was 214 nM.
`OCCC/C(=C(\c1ccc(O)cc1)c1ccc(N2CCN(C3CCCC3)CC2)cc1)c1ccccc1` showed an IC50 [4] of 115 nM.
For `CN1CCN(c2ccc(/C(=C(/CCCOC(=O)C(C)(C)C)c3ccccc3)c3ccc(OC(=O)C(C)(C)C)cc3)cc2)CC1`, the IC50 [4] was greater than 10000 nM.
With `CN1CCN(c2ccc(/C(=C(/CCCO)c3ccccc3)c3ccc(OC(=O)C(C)(C)C)cc3)cc2)CC1` the IC50 [4] was 2700 nM.
